The source of these data is PubChem BioAssay (NCI).

SMILES strings stand for the structures.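 1) Cells in 96-well plates. 2) Compound, 48 h, 5 concentrations. 3) Linear interpolation between surrounding doses. 4) Unreached endpoint = highest concentration. GI50 = concentration required for 50% inhibition of growth. TGI: total growth inhibition.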 Bounds are passed on as bounds.

Test systems include SF-539 CNS; OVCAR-5 ovarian; OVCAR-4 ovarian; EKVX NSCLC; HCT-15 colon; K-562 leukemia; NCI-H522 lung; HCT-116 colon; HL-60(TB) leukemia; SF-268 CNS.
What all share (assay): NCI anticancer screen, dose series, 48 h

For `CC(=O)O[C@H]1C(N(C)C(=O)c2ccccc2)CC[C@]2(C)C3CC[C@@]4(C)C(CC(O)[C@@H]4C(C)N(C)C)[C@@H]3CCC12` (some centres not stated), the TGI with SF-539 CNS, in the assay on OVCAR-5 ovarian, in the assay on OVCAR-4 ovarian, in the assay on EKVX NSCLC, with HCT-15 colon and in the assay on K-562 leukemia was greater than 100 µM in each case. Also, the TGI in the assay on NCI-H522 lung, in the assay on HCT-116 colon, in the assay with HL-60(TB) leukemia and with SF-268 CNS was greater than 100 µM in each case.
With `COc1cc(-c2cnn(C)c2)ccc1Nc1ncc2ccnc(N[C@@H](C)C(C)(C)C)c2n1`, the GI50 in the assay with SF-539 CNS is greater than 57300 nM; in the assay with OVCAR-5 ovarian, 97800 nM; in the assay on OVCAR-4 ovarian it was greater than 46.8 µM; in the assay with EKVX NSCLC, greater than 100 µM; with HCT-15 colon, 651 nM; in the assay with K-562 leukemia, greater than 72800 nM. Also, the GI50 in the assay on NCI-H522 lung is greater than 100000 nM; in the assay on HCT-116 colon, 467 nM; with HL-60(TB) leukemia, greater than 100000 nM; in the assay with SF-268 CNS it was greater than 41500 nM. In addition, the TGI in the assay on SF-539 CNS, in the assay on OVCAR-5 ovarian, in the assay with OVCAR-4 ovarian, in the assay on EKVX NSCLC, with HCT-15 colon and in the assay on K-562 leukemia was greater than 100 µM each time. For the same compound, the TGI in the assay with NCI-H522 lung, with HCT-116 colon, in the assay with HL-60(TB) leukemia and in the assay with SF-268 CNS was greater than 100 µM throughout.
With `O=c1oc2ccccc2c(O)c1/C=N\c1nc(-c2ccccc2)cs1`, the TGI is 6.39 µM in the assay on SF-539 CNS; 35.1 µM with OVCAR-5 ovarian; greater than 100 µM in the assay with OVCAR-4 ovarian; 42.6 µM with EKVX NSCLC; greater than 100 µM in the assay on K-562 leukemia; 5.71 µM in the assay on NCI-H522 lung. Besides, the TGI in the assay with HCT-116 colon was 22 µM; in the assay on HL-60(TB) leukemia, 4.01 µM; in the assay with SF-268 CNS, 31.1 µM.
Consider `CCOc1ccccc1NC(=O)/C=C1\NC(=O)CS1`, for which the TGI with SF-539 CNS, with OVCAR-5 ovarian, in the assay with OVCAR-4 ovarian, in the assay with EKVX NSCLC, in the assay with K-562 leukemia and in the assay on NCI-H522 lung was greater than 100 µM in each case. The TGI with HCT-116 colon, in the assay with HL-60(TB) leukemia and in the assay on SF-268 CNS was greater than 100 µM throughout.
`COc1cc([C@H](C)c2ccc3ccccc3c2)cc(OC)c1OC`: the GI50 is 297 nM in the assay on SF-539 CNS; 997 nM in the assay with OVCAR-5 ovarian; 1.17 µM in the assay with OVCAR-4 ovarian; 0.941 µM in the assay on EKVX NSCLC; 311 nM with HCT-15 colon; 41.1 nM in the assay on K-562 leukemia. Also, the GI50 in the assay on NCI-H522 lung was 376 nM; with HL-60(TB) leukemia, 184 nM; in the assay on SF-268 CNS it was 1670 nM. Further, the TGI in the assay on SF-539 CNS, with OVCAR-5 ovarian, in the assay on OVCAR-4 ovarian, in the assay with EKVX NSCLC, in the assay on HCT-15 colon and in the assay on K-562 leukemia was greater than 100 µM each time. In addition, the TGI with NCI-H522 lung was 28.3 µM; with HL-60(TB) leukemia, 0.745 µM; with SF-268 CNS, greater than 100 µM.
With `N#CCCc1nc2ccc(Br)cc2c(=O)n1CCO`, the TGI in the assay on SF-539 CNS, in the assay on OVCAR-4 ovarian, with EKVX NSCLC, in the assay with HCT-15 colon, in the assay with K-562 leukemia and in the assay with NCI-H522 lung was greater than 100 µM throughout. The TGI in the assay with HL-60(TB) leukemia and with SF-268 CNS was greater than 100 µM throughout.
Turning to `CCC(=O)c1cn(C)c(=O)c2ccccc12`, the TGI in the assay with SF-539 CNS, in the assay with OVCAR-5 ovarian, in the assay on OVCAR-4 ovarian, with EKVX NSCLC, with HCT-15 colon and with K-562 leukemia was greater than 100 µM in each case. In addition, the TGI in the assay on NCI-H522 lung, with HL-60(TB) leukemia and with SF-268 CNS was greater than 100 µM throughout.
As for `O=[N+]([O-])c1c(/C=N/Nc2ccccc2)oc(-c2ccc3c(c2)OCO3)c1-c1ccc2c(c1)OCO2`, the TGI was greater than 100 µM in the assay with SF-539 CNS; greater than 100 µM in the assay on OVCAR-5 ovarian; greater than 100 µM with OVCAR-4 ovarian; greater than 100 µM in the assay with EKVX NSCLC; 14.5 µM in the assay on K-562 leukemia; greater than 100 µM in the assay with NCI-H522 lung. Moreover, the TGI in the assay with HCT-116 colon was greater than 100 µM; with HL-60(TB) leukemia, 33.5 µM; with SF-268 CNS, greater than 100 µM.
Regarding `O=C1c2cc(Br)ccc2-c2c1c1ccc([N+](=O)[O-])cc1c(=O)n2CCCCl`, the GI50 was 182 nM in the assay with SF-539 CNS; 2570 nM in the assay with OVCAR-5 ovarian; 11.2 µM in the assay on OVCAR-4 ovarian; 10.6 µM in the assay on EKVX NSCLC; 1410 nM with HCT-15 colon; less than 49.5 nM with K-562 leukemia. In addition, the GI50 is 63.6 nM with NCI-H522 lung, 1050 nM in the assay with HCT-116 colon and less than 25.8 nM in the assay on SF-268 CNS. The TGI with SF-539 CNS is 3.31 µM; in the assay on OVCAR-5 ovarian, 21.8 µM; in the assay on OVCAR-4 ovarian, 77.7 µM; in the assay on EKVX NSCLC, greater than 100 µM; in the assay on HCT-15 colon, greater than 100 µM; with K-562 leukemia, greater than 43.7 µM. The TGI in the assay on NCI-H522 lung came to 5.38 µM; in the assay with HCT-116 colon, 5.94 µM; with SF-268 CNS it was 35.5 µM.
As to `O=C(C(O)c1cn(Cc2ccccc2)c2ccccc12)N1CCCCC1` (configuration not stated), the TGI in the assay on SF-539 CNS, in the assay with OVCAR-5 ovarian, in the assay on EKVX NSCLC, in the assay on HCT-15 colon, with K-562 leukemia and with NCI-H522 lung was greater than 100 µM each time. Also, the TGI with HCT-116 colon, in the assay with HL-60(TB) leukemia and in the assay with SF-268 CNS was greater than 100 µM throughout.
Turning to `COc1ccc2c(c1)C(=O)CC(N)C2` (configuration not stated), the TGI in the assay with OVCAR-5 ovarian, in the assay on OVCAR-4 ovarian, in the assay with EKVX NSCLC, with HCT-15 colon, with K-562 leukemia and with NCI-H522 lung was greater than 100 µM in each case. The TGI with HCT-116 colon, in the assay on HL-60(TB) leukemia and in the assay with SF-268 CNS was greater than 100 µM throughout.
Take `CCCC(=O)c1c(NOC2OC(COC(C)=O)C(OC(C)=O)C(OC(C)=O)C2OC(C)=O)nc(OC)n(C)c1=O` (configuration not stated): the TGI with SF-539 CNS, with OVCAR-5 ovarian, in the assay on OVCAR-4 ovarian, in the assay on EKVX NSCLC, in the assay with HCT-15 colon and with K-562 leukemia was greater than 100 µM throughout. Also, the TGI in the assay on NCI-H522 lung, in the assay with HCT-116 colon and in the assay with SF-268 CNS was greater than 100 µM throughout.
